Where “and” joins values, the source holds several entries; their conditions need not be identical. Equal entries are not always repeated.
Assays:
Assay type in all cases: in vivo, rat
[1] = Body weight of rats over the 10-day period (Example 3); set-up: Body weight Difference: unit not given here; conditions: Sennosides 3.35 mg/kg/day; for Body weight Difference, Mean / Body weight End Day 10, Mean: group mean; for Body weight Difference, Mean / Body weight Difference: Day 10 minus Day 1; for Body weight Difference / Body weight End Day 10: individual rats
In short: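 Healthy male S.D. rats, 6 per treatment, given test substances daily at 4–24 mg/kg/day (dose per substance), with untreated and 3.35 mg/kg/day sennoside controls. Body weight recorded each day over 10 days; standard food and water ad libitum, 12-hour light/dark cycle.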

healthy male S.D. rats [2] = assay: Intestinal motility test after the feces tests (Example 3); conditions: after the 10-day feces tests; control rats 61.1%; dose not stated
Protocol: After the above-discussed feces tests, intestinal motility tests were conducted. Before the experiment, the rats were fasted for at least sixteen hours. The rats were then given the aforementioned drugs or extracts. After 3 hours, each rat was given 3 ml/kg of 0.5% methylcellulose solution-0.5% Evans blue dye. Each rat was sacrificed 30 minutes later and its abdominal cavity was cut open. The entire small intestine was extracted and carefully straightened. The entire stretch between the pylorous and cecum was measured as the small intestine length. The distance traveled by Evans blue dye along the intestines was also measured. During dissection, any unusual observations were recorded and photographed. The intestinal motility function was calculated in the following formula: Intestine motility=(Evans blue dye length/small intestine length)×100%. After finishing the feces tests, intestinal motility tests were conducted in the same manner described above. During dissection, any unusual observations were recorded and photographed. For comparison within the groups, a Post hoc Comparison was applied with p<0.05 indicating significant differences.

healthy male S.D. rats [3] = assay: Feces production in rats given Rheum palmatum Linne extracts for three weeks (Example 2); conditions: oral everyday, Rheum palmatum crude extract 500, Bisacodyl 1.75, Sennosides 3.55, STD03 180, STD05-1 12, STD05-2 24 mg/kg; for Water content: feces; for Pellet count / Wet Weight: total of the six rats in the group
Protocol: The laxative activities by Rheum palmatum Linne extracts were studied. A crude Rheum palmatum Linne extract and STD05 were obtained from SunTen Phytotech Co., Ltd. (Jhonghe City, Taiwan). Commercial available laxatives, Through® (Chung Mei Pharmaceutical Co., Ltd.; active ingredient: Sennosides 20 mg, as Sennosides A+B 12 mg, Lot. 009A 051) and Dulcolax® (Boehringer Ingelheim, Taiwan, Ltd.; active ingredient: Bisacodyl; Lot. 480-4942) were obtained from a pharmacy.
Forty-two healthy male S.D. rats (8 weeks old; National Laboratory Animal Center, Taiwan) were divided into seven groups (six in each) and tested for the laxative activity by Rheum palmatum Linne extracts. The rats in one group were not fed with any extract or drug and used as negative controls. The rats in the second and third group were given Sennosides (3.55 mg/kg) and Bisacodyl (1.75 mg/kg), respectively, and used as positive controls. The Rats in the other four groups were given Rheum palmatum Linne crude extract (500 mg/kg), filtered crude extract STD03 (180 mg/kg), and STD05 (STD05-1: 12 mg/kg and STD05-2: 24 mg/kg), respectively. All substances were administered orally everyday for three weeks.
The experiments were carried out under conditions in which temperature, humidity, and lighting were all controlled. Each rat was fed standard rat food and water ad libitum in housing that provided a 12-hour light/dark cycle. The rats were divided into seven groups according to the body weights.
The first part of the experiment studied the effect of the above-mentioned extracts on feces production. During the three-week period, any rat that appeared dying was euthanized, dissected, and studied to check for any illness or injures. Any complications or illness were analyzed by H&E stains to determine the cause of death and to allow for dosage reconsiderations for future experiments.
During this period, the body weights of the rats were weighed each day and recorded. Feces of each rat were studied three times during the period for any unusual observations. Specifically, the amounts of feces were weighed on Days 11, 15, 18, and 21. During observation, each rat was placed in a metabolic cage. Feces were collected every twenty-four hours. The number of collected feces pellets was counted, and the pellets' shapes and colors were evaluated. After weighing the moist feces, they were dried in an oven at 100° C. for twenty-four hours. The water content from the feces was calculated according to the following formula: Water content percentage=[(wet weight−dry weight)/wet weight]×100%.
Intestine motility data were expressed as mean±SD. Data were analyzed using the one-way ANOVA method. For comparison within the groups, a Post hoc Comparison was applied. In both feces production and intestine motility analyses, p<0.05 indicates significant differences. For the feces production tests, the data for each group and each time point represent the total wet weight or pellet count of the six rats in the group.

[4] = Group I, STD05 8 mg/kg, ARE 8 mg/kg, Aloe-emodin 4 mg/kg, Rhein 4 mg/kg
[5] = Group II, STD05 24 mg/kg, ARE 24 mg/kg, Chrysophanol 4 mg/kg, Emodin 4 mg/kg

For Sennosides, which Body weight Difference, Mean [1, 4] is on record?
The Body weight Difference, Mean was 53 g.

And the Body weight End Day 10, Mean [1, 4]?
Its Body weight End Day 10, Mean is 338 g.

And the “Body weight Difference” value [1, 4]?
Its value is 45 (2×) and 60 and 35 and 65 and 70.

What about the “Body weight End Day 10” value [1, 4] of the same substance?
The value was 325 and 330 and 350 (2×) and 310 and 365.

And the Body weight Difference, Mean [1, 5]?
The Body weight Difference, Mean was 41 g.

And the Body weight End Day 10, Mean [1, 5]?
Its Body weight End Day 10, Mean is 398 g.

And the “Body weight Difference” value [1, 5]?
The value was 30 and 45 and 40 (2×) and 35 and 55.

And the “Body weight End Day 10” value ([1]; Group II, STD05 24 mg/kg, ARE 24 mg/kg, Chrysophanol 4 mg/kg, Emodin 4 mg/kg, in g (unit assumed))?
The value was 370 and 395 and 405 and 360 and 410 and 445.

What about the intestinal motility (healthy male S.D. rats [2]) of the same substance?
Its intestinal motility is 67.9%.

What about the Water content (healthy male S.D. rats [3]; Day 11) of the same substance?
The Water content was 52.70%.

And the Pellet count (healthy male S.D. rats [3]; Day 11)?
The Pellet count was 121.

And the “Wet Weight” value (healthy male S.D. rats [3]; Day 11)?
Its value is 29.21 g.

And the Water content (healthy male S.D. rats [3]; Day 15)?
The Water content was 60.40%.

And the Pellet count (healthy male S.D. rats [3]; Day 15)?
The Pellet count was 119.

And the “Wet Weight” value (healthy male S.D. rats [3]; Day 15)?
Its value is 30.95 g.

And the Water content (healthy male S.D. rats [3]; Day 18)?
The Water content was 47.30%.

And the Pellet count (healthy male S.D. rats [3]; Day 18)?
Its Pellet count is 106.

And the “Wet Weight” value (healthy male S.D. rats [3]; Day 18)?
Its value is 23.90 g.

What about the Water content (healthy male S.D. rats [3]; Day 21) of the same substance?
Its Water content is 44.73%.

What about the Pellet count (healthy male S.D. rats [3]; Day 21) of the same substance?
Its Pellet count is 123.

What about the “Wet Weight” value (healthy male S.D. rats [3]; Day 21) of the same substance?
Its value is 27.80 g.

Reference: US8466202B2, “Anthracenedione compounds” (Sunten Phytotech Co., Ltd., priority 2006, dated 2013)
